This is an account of results in publication PMC5464342 (Pharmacology Research & Perspectives, 2017).

SMILES strings stand for the structures. Read-outs that look alike come from different tables or passages of the source.

In data set [1] the target is T1, wild type aromatase (CYP19A1*1) (Homo sapiens, UniProt P11511).
T1 sequence (P11511 1-503): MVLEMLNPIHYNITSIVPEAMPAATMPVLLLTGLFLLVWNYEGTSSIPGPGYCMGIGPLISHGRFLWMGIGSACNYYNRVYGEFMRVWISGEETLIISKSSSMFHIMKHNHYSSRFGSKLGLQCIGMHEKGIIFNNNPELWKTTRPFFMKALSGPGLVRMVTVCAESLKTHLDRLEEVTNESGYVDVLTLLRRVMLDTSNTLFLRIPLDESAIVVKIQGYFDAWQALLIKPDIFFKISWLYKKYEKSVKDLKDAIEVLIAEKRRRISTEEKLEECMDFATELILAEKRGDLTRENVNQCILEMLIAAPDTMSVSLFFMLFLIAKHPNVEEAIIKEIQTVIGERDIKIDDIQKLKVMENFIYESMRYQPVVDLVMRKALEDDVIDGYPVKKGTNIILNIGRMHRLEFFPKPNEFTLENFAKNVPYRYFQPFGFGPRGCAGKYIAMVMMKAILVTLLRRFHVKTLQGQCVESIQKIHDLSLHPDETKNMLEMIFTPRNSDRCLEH
Nature of the data set: Anti-aromatase activity assay, estrone formation by UPLC/MS/MS, microsomes of HEK293 overexpressing wild type aromatase. The class given is biochemical.

Data set [2] is described as follows: EXE metabolite identification in human liver microsomes by UPLC/MS/MS. To be noted: 50 μg HLM, 400 μmol/L EXE, NADPH regeneration system, 37°C, 4 h; for identified as phase I EXE metabolite in incubations of EXE with pooled human liver microsomes: comparison to reference compounds. The format is in vitro ADME. (Liver microsomes are a subcellular fraction often used to study metabolism.)

The subject of a further data set is aromatase. Also on record: method as in Buzzetti et al. 1993. Particulars: ref Buzzetti et al. 1993; cited from earlier work.

A word on the IC50: it is the concentration needed to halve the response being measured. As to `C[C@]12C=CC(=O)C=C1C(CO)=CC1C2CC[C@]2(C)C(=O)CCC12` (some centres unmarked) [6-hydroxymethylandrosta-1,4,6-triene-3,17-dione], the concentration for half-maximal inhibition (IC50) in data set [1] was 61 ± 20 µM. Besides, in data set [1] (ratio of IC50 values versus EXE), the “fold less potent than EXE (wild type aromatase)” value was 67 fold. In addition, in data set [2], the “identified as phase I EXE metabolite in incubations of EXE with pooled human liver microsomes” value (“identified as phase I EXE metabolite” for short) is “identified”.

As to `C[C@]12C=CC(=O)C=C1[C@@]1(CO1)CC1C2CC[C@]2(C)C(=O)CCC12` (stereo partly drawn) [6α-spirooxiranandrosta-1,4-diene-3,17-dione], in data set [1], the IC50 was found to be 1.2 ± 0.19 µM. In data set [1] (ratio of IC50 values versus 6β-spirooxiranandrosta-1,4-diene-3,17-dione), the “fold more potency than its 6β stereoisomer (wild type aromatase)” value is listed as around 5 fold.

`C[C@]12C=CC(=O)C=C1C(O)(CO)CC1C2CC[C@@]2(C)C1CC[C@@H]2O` (stereo partly drawn) [6α/β,17β-dihydroxy-6α/β-hydroxymethylandrosta-1,4-diene-3-one] yielded an IC50 in data set [1] above 100 µM. Moreover, the “identified as phase I EXE metabolite” value in data set [2] is reported as “identified”.

The molecule `C[C@]12C=CC(=O)C=C1C(O)(CO)CC1C2CC[C@]2(C)C(=O)CCC12` (stereo partly drawn) [6α/β-hydroxy-6α/β-hydroxymethylandrosta-1,4-diene-3,17-dione] gave an IC50 in data set [1] above 100 µM. Besides, in data set [2], the “identified as phase I EXE metabolite” value is given as “identified”.

`C[C@]12C=CC(=O)C=C1[C@]1(CO1)CC1C2CC[C@]2(C)C(=O)CCC12` (stereo partly drawn) [6β-spirooxiranandrosta-1,4-diene-3,17-dione]: the IC50 in data set [1] came out at 5.7 ± 1.6 µM.

In the case of `C=C1CC2C(CC[C@@]3(C)C2CC[C@@H]3O)[C@@]2(C)C=CC(=O)C=C12` (stereo partly drawn) [17β-dihydroexemestane], in data set [2], the “abundance of the EXE metabolite formed in human liver microsomes” value is listed as “predominant EXE metabolite” and the “identified as phase I EXE metabolite” value was “identified”. Moreover, in the data set on aromatase, the “fold less potent than EXE (earlier study)” value is “approximately 2.6 fold”.

Regarding `C[C@]12CC[C@H]3[C@@H](C=C(CO)C4=CC(=O)C=C[C@@]43C)[C@@H]1CC[C@@H]2O` [17β-hydroxy-6-hydroxymethylandrosta-1,4,6-triene-3-one], the IC50 in data set [1] (15 μg HEK293 microsomes, 5 μmol/L androstenedione, NADPH regeneration system, 37°C, 2 h, read-out: IC50 for wild-type aromatase) is above 100 µM.
